What all share (assay type): biochemical
The target of one assay is T1, human IGF1R (hIGF1R) (Homo sapiens, UniProt P08069).
T1 construct: containing amino acid residues 957-1367 of human IGF1R; made in house; host or cells: Sf9 cells (baculovirus)
As to the kind of experiment: TR-FRET kinase assay of purified hIGF1R. To be noted: activated hIGF1R 0.5 nM, 10 μM ATP, values given as pIC50 category, read-out: IGF-1R pIC50 (converted). Here is the method:
(§1) Time Resolved Fluorescence Resonance Energy Transfer (TR-FRET) assays were carried out on the exemplified compounds as follows:
(§2) Purity is determined by HPLC. The calculated molecular mass of the peptide is 2216 dalton. Tyrosine phosphorylation by human IGF1R (hIGF1R) or human IR (hIR) occurs as indicated (Y*) in the peptide sequence described. Solid peptide sample is dissolved to approximately 1 mM in DMSO, aliquoted, and stored at −20° C. until use. True peptide concentration is determined by amino acid analysis.
hIGF1R: GST-rTEV-IGF-1R(957-1367) containing amino acid residues 957-1367 of human IGF1R (as annotated by National Center for Biotechnology Information (NCBI) accession number NP_000866) is purified from a baculovirus expression system in Sf9 cells using Glutathione Sepharose 4FF column chromatography followed by Sephadex-200 size exclusion column chromatography. […] Samples, in 25 mM Tris-HCl, 250 mM NaCl, 5% glycerol, 1 mM DTT, pH 7.5, are stored at −80° C. until use.
hIGF1R: Activation of GST-rTEV-IGF-1R(957-1367) is achieved by a 4 minute incubation of hIGF1R (2.7 μM final) with 2 mM ATP in 50 mM HEPES, 20 mM MgCL2, 0.1 mg/ml BSA, at room temperature. Autophosphorylation is stopped by addition of EDTA (to 100 mM final). Aliquoted samples are flash frozen in liquid nitrogen and stored at −80° C. until use.
(§3) Assays are performed in 384-well (Greiner, Catalog No. 784076) microtiter plates. Reaction buffer (50 mM HEPES buffer, pH 7.5; 10 mM MgCL2; 3 mM DTT; 1 mM CHAPS; 0.1 mg/ml BSA) for peptide phosphorylation (10 μl volume) contained, in final concentrations, 500 nM biotinylated peptide substrate; 10 μM ATP; and purified, activated hIGF1R or hIR (0.5 nM). Compounds, titrated in DMSO, are evaluated at eleven concentrations ranging from 50 μM to 0.2 nM. […] Reactions are incubated for 1 hour at room temperature and are stopped by a 5 μl addition of EDTA (to 33 mM). A further addition of 5 μl detection reagents (for final 7 nM Streptavidin-APC (Perkin Elmer #CR^130-150), 1 nM Europium-labeled anti-phosphotyrosine monoclonal antibody (PerkinElmer #AD0067), added in reaction buffer (without DTT), is required for signal generation. After 30 minutes, signal is read on PerkinElmer Viewlux microplate imager or Wallac Victor fluorometer.
(§4) The data for compound concentration responses were plotted as % Inhibition, calculated with the data reduction formula 100*(1-[(U1-C2)/(C1-C2)]), versus concentration of compound, where • U is the unknown value, • C1 is the average control value obtained for DMSO only, and • C2 is the average control value obtained for reactions stopped with EDTA at • t=0.
(§5) Data were fitted to the curve described by: y=((Vmax*x)/(K+x)) where • Vmax is the upper asymptote and • K is the IC50.

The next assay deals with T2, human IR (hIR) (Homo sapiens, UniProt P06213).
T2 construct: containing amino acid residues 979-1382 of human IR; made in house; host or cells: Sf9 cells (baculovirus), same process as hIGF1R
As to the kind of experiment: TR-FRET kinase assay of purified hIR. To be noted: activated hIR 0.5 nM, 10 μM ATP, values given as pIC50 category. Here is the method:
as §1, §2
hIR: GST-rTEV-IR(979-1382) containing amino acid residues 979-1382 of human IR (as annotated by NCBI accession number NP_000199) is expressed and purified by the same process as hIGF1R. […] Samples, in 25 mM Tris-HCl, 250 mM NaCl, 5% glycerol, 1 mM DTT, pH 7.5, are stored at −80° C. until use.
hIR: Activation of GST-rTEV-IGF-1R(957-1367) is achieved by a 5 minute incubation of hIR (2.7 μM final) with 2 mM ATP in 100 mM HEPES, 10 mM MgCL2, 0.1 mg/ml BSA, at room temperature. Autophosphorylation is stopped by addition of EDTA (to 100 mM final). Aliquoted samples are flash frozen in liquid nitrogen and stored at −80° C. until use.
as §3, §4, §5

A further assay concerns the target ALK (Homo sapiens, UniProt Q9UM73). As to the kind of experiment: ALK enzyme assay (HTRF). To be noted: 0.25 nM ALK, 15.0 μM ATP, values given as pIC50 category. The method, then: The method measures the ability of the isolated enzyme to catalyse the transfer of the gamma-phosphate from ATP onto the tyrosine residue of a biotinylated synthetic peptide. The extent of tyrosine phosphorylation was measured using an anti-phosphotyrosine antibody, and quantified by homogenous time-resolved fluorescence (HTRF) assay purchased from CisBio (62TK0PEJ).
Reactions were performed in black 384-well polystyrene low volume plates in a final volume of 5 μl.
The reactions were then started by adding the substrate mix. The reactions were allowed to proceed for 120 minutes at 20° C. The reactions were then terminated by the addition of 5 μl HTRF detection mix to each well. The final concentrations of the detection reagents were: 50 mM HEPES (pH7.0); 0.1% BSA; 0.8 M KF; 20 mM EDTA; 1 mM CHAPS; TK-antibody Europium Cryptate; and 41 nM streptavidin-XL665. Assay plates were left unsealed, stacked and incubated at 20° for 60 minutes. Quantification of activity was achieved by counting in an Envision Counter (PerkinElmer).
Compounds under analysis were dissolved in Me2SO to 1.0 mM and serially diluted 1 to 3 with Me2SO through twelve dilutions. 0.05 μl of each concentration was transferred to the corresponding well of an assay plate. This creates a final compound concentration range from 0.00017 to 10 μM.
The data for dose responses were plotted as % Inhibition calculated with the data reduction formula 100*(1-(U1-C2)/(C1-C2)) versus concentration of compound where U is the unknown value, C1 is the average control value obtained for 1% DMSO, and C2 is the average control value obtained for 0.1 M EDTA. Data were fitted with a curve described by:
[formula] where A is the minimum y, B is the maximum y concentration [M], D is the slope factor, and x is the log10 of the compound.
A general note: TR-FRET usually uses a lanthanide donor and a delayed reading to cut background.

T1 sequence (P08069 957-1367): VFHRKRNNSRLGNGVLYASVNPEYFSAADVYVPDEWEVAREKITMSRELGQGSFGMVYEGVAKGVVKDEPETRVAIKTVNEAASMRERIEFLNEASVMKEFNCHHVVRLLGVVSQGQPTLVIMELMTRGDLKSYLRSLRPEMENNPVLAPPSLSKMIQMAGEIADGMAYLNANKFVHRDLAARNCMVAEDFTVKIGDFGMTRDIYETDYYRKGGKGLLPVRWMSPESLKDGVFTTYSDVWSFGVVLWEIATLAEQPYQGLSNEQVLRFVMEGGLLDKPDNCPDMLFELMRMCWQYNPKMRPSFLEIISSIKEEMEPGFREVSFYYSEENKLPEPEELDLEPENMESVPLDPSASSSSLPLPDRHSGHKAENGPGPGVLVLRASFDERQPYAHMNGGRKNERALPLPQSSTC
T2 sequence (P06213 979-1382): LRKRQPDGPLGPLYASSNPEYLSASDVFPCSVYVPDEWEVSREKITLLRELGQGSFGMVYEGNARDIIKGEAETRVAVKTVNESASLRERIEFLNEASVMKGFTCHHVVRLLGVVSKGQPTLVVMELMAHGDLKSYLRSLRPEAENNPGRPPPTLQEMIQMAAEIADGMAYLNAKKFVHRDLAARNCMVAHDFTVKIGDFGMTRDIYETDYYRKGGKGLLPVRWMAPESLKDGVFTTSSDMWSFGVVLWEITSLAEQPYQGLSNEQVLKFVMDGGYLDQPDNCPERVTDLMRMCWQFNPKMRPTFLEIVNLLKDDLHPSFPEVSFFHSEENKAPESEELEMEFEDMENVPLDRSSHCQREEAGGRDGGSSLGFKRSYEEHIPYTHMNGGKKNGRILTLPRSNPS
Chain of ALK (Q9UM73 19-1620): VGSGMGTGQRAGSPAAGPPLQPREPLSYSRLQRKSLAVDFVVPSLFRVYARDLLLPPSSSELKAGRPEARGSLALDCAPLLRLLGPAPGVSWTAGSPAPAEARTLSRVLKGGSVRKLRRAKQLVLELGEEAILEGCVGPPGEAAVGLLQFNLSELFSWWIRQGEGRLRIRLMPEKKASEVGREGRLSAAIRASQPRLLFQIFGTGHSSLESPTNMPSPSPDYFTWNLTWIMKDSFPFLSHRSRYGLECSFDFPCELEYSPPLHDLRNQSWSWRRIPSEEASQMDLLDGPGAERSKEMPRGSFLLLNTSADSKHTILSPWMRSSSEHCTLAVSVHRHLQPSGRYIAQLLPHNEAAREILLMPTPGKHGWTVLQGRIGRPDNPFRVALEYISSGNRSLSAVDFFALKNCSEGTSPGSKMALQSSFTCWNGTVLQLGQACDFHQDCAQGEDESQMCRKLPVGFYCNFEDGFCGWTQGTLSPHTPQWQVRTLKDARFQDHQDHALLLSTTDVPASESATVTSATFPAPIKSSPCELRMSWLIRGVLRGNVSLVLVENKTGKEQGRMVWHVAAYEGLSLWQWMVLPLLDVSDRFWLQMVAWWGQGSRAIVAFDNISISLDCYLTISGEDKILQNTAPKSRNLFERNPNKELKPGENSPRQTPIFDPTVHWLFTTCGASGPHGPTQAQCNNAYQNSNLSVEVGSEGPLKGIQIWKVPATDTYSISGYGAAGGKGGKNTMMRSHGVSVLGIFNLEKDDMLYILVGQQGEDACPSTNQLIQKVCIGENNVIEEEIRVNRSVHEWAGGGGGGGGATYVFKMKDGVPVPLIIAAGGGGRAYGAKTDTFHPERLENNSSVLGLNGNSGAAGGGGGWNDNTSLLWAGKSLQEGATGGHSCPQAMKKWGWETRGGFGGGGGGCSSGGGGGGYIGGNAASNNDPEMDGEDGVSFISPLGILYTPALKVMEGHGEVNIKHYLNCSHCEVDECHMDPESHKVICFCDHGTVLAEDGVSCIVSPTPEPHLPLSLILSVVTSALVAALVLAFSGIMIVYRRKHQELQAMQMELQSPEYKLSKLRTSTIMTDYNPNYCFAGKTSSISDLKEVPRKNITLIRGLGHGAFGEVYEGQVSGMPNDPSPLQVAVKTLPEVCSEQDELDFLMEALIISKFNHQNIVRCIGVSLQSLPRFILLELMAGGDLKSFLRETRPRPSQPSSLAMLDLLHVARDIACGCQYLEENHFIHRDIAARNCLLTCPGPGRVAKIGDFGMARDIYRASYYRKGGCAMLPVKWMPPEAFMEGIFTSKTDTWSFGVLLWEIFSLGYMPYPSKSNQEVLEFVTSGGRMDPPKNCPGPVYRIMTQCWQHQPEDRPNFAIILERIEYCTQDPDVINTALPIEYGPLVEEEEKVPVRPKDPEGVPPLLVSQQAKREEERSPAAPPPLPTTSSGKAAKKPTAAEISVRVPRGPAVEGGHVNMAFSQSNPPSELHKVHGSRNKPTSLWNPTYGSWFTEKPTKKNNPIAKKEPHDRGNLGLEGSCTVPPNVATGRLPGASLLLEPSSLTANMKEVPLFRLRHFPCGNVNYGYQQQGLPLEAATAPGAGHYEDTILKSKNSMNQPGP

Consider `Cc1ccc(NC(=O)CN(C)C)cc1Nc1nc(Nc2ccc(Cl)cc2C(N)=O)c2cc[nH]c2n1` [Example 109, 5-chloro-2-{[2-({5-[(N,N-dimethylglycyl)amino]-2-methylphenyl}amino)-1H-pyrrolo[2,3-d]pyrimidin-4-yl]amino}benzamide], for which the results for the IC50 on human IGF1R (hIGF1R), at human IR (hIR) and on ALK were 1.26 to 3.98 nM, 0.251 to 1 nM and 5.01 to 200 nM, respectively.
As for `COc1cc2c(cc1Nc1nc(Nc3cccc(F)c3C(N)=O)c3cc[nH]c3n1)N(C(=O)CN1CCC(O)C1)CC2` (centres unmarked) [Example 181, 2-fluoro-6-[(2-{[1-[(3-hydroxy-1-pyrrolidinyl)acetyl]-5-(methyloxy)-2,3-dihydro-1H-indol-6-yl]amino}-1H-pyrrolo[2,3-d]pyrimidin-4-yl)amino]benzamide], the IC50 against ALK was 1.26 to 3.98 nM.
On ALK, `CNC(=O)c1c(F)cccc1Nc1nc(Nc2cc3c(cc2OC)CCN3C(=O)CN2CCC(O)C2)nc2[nH]ccc12` (centres unmarked) [Example 182, 2-fluoro-6-[(2-{[1-[(3-hydroxy-1-pyrrolidinyl)acetyl]-5-(methyloxy)-2,3-dihydro-1H-indol-6-yl]amino}-1H-pyrrolo[2,3-d]pyrimidin-4-yl)amino]-N-methylbenzamide] gave an IC50 of 0.251 to 1 nM.
Still for that read-out and setting: then `CNC(=O)c1ccccc1Nc1nc(Nc2cc3c(cc2OC)CCN3C(=O)CN(C)C)nc2[nH]ccc12` [Example 241, 2-[(2-{[1-(N,N-dimethylglycyl)-5-(methyloxy)-2,3-dihydro-1H-indol-6-yl]amino}-1H-pyrrolo[2,3-d]pyrimidin-4-yl)amino]-N-methylbenzamide], with 5.01 to 200 nM; and `COc1cc2c(cc1Nc1nc(Nc3cccc(F)c3C(N)=O)c3cc[nH]c3n1)N(C(=O)CN1CCCC(O)C1)CC2` (centres unmarked) [Example 183, 2-fluoro-6-[(2-{[1-[(3-hydroxy-1-piperidinyl)acetyl]-5-(methyloxy)-2,3-dihydro-1H-indol-6-yl]amino}-1H-pyrrolo[2,3-d]pyrimidin-4-yl)amino]benzamide], with 0.251 to 1 nM; and `COc1cc2c(cc1Nc1nc(Nc3ccccc3C(N)=O)c3cc[nH]c3n1)N(C(=O)CN(C)C)CC2` [Example 240, 2-[(2-{[1-(N,N-dimethylglycyl)-5-(methyloxy)-2,3-dihydro-1H-indol-6-yl]amino}-1H-pyrrolo[2,3-d]pyrimidin-4-yl)amino]benzamide], with 0.251 to 1 nM.
With `CCCN1CCC=C(c2ccc(Nc3nc(Nc4ccc(C)cc4C(N)=O)c4cc[nH]c4n3)c(C)c2)C1` [Example 32, 5-methyl-2-[(2-{[2-methyl-4-(1-propyl-1,2,5,6-tetrahydro-3-pyridinyl)phenyl]amino}-1H-pyrrolo[2,3-d]pyrimidin-4-yl)amino]benzamide], the IC50 on human IGF1R (hIGF1R), on human IR (hIR) and on ALK was 1.26 to 3.98 nM throughout.
`Cc1ccc(NC(=O)CN(C)C)cc1Nc1nc(Nc2ccccc2C(N)=O)c2cc[nH]c2n1` [Example 13, 2-{[2-({5-[(N,N-dimethylglycyl)amino]-2-methylphenyl}amino)-1H-pyrrolo[2,3-d]pyrimidin-4-yl]amino}benzamide]: the values for the IC50 on human IGF1R (hIGF1R), against human IR (hIR) and against ALK were 1.26 to 3.98 nM, 0.251 to 1 nM and 1.26 to 3.98 nM, respectively.
Turning to `CNC(=O)c1c(F)cccc1Nc1nc(Nc2cc3c(cc2OC)CCN3C(=O)[C@H]2CCCN2C)nc2[nH]ccc12` [Example 129, 2-fluoro-N-methyl-6-[(2-{[5-(methyloxy)-1-(1-methyl-D-prolyl)-2,3-dihydro-1H-indol-6-yl]amino}-1H-pyrrolo[2,3-d]pyrimidin-4-yl)amino]benzamide], the IC50 on human IGF1R (hIGF1R) was 5.01 to 200 nM; on human IR (hIR), 5.01 to 158 nM; on ALK, 5.01 to 200 nM.
In turn, `CNC(=O)c1c(F)cccc1Nc1nc(Nc2cc3c(cc2OC)CCN3C(=O)CN2CCCC(O)C2)nc2[nH]ccc12` (centres unmarked) [Example 184, 2-fluoro-6-[(2-{[1-[(3-hydroxy-1-piperidinyl)acetyl]-5-(methyloxy)-2,3-dihydro-1H-indol-6-yl]amino}-1H-pyrrolo[2,3-d]pyrimidin-4-yl)amino]-N-methylbenzamide] showed an IC50 against ALK of 1.26 to 3.98 nM.
Regarding `CCCN1CCC=C(c2ccc(Nc3nc(Nc4ccc(OC)cc4C(N)=O)c4cc[nH]c4n3)c(C)c2)C1` [Example 37, 5-(methyloxy)-2-[(2-{[2-methyl-4-(1-propyl-1,2,5,6-tetrahydro-3-pyridinyl)phenyl]amino}-1H-pyrrolo[2,3-d]pyrimidin-4-yl)amino]benzamide], the IC50 on human IGF1R (hIGF1R) was 5.01 to 200 nM; at ALK, 1.26 to 3.98 nM.
For the molecule `COc1cc(CS(C)(=O)=O)ccc1Nc1nc(Nc2ccccc2C(N)=O)c2cc[nH]c2n1` [Example 19, 2-{[2-({2-(methyloxy)-4-[(methylsulfonyl)methyl]phenyl}amino)-1H-pyrrolo[2,3-d]pyrimidin-4-yl]amino}benzamide], the IC50 at human IGF1R (hIGF1R), against human IR (hIR) and against ALK was 1.26 to 3.98 nM throughout.
For `CNC(=O)c1c(F)cccc1Nc1nc(Nc2ccc3c(c2)N(C(=O)CN(C)C)CC3)nc2[nH]ccc12` [Example 130, 2-[(2-{[1-(N,N-dimethylglycyl)-2,3-dihydro-1H-indol-6-yl]amino}-1H-pyrrolo[2,3-d]pyrimidin-4-yl)amino]-6-fluoro-N-methylbenzamide], the results for the IC50 at human IGF1R (hIGF1R), against human IR (hIR) and against ALK were 5.01 to 200 nM, 5.01 to 158 nM and 5.01 to 200 nM, respectively.
For `CCOc1cc2c(cc1Nc1nc(Nc3cccc(F)c3C(=O)NC)c3cc[nH]c3n1)N(C(=O)CN(C)C)CCC2` [Example 133, 2-[(2-{[1-(N,N-dimethylglycyl)-6-(ethyloxy)-1,2,3,4-tetrahydro-7-quinolinyl]amino}-1H-pyrrolo[2,3-d]pyrimidin-4-yl)amino]-6-fluoro-N-methylbenzamide], the IC50 on human IGF1R (hIGF1R), against human IR (hIR) and on ALK was 1.26 to 3.98 nM in each case.

Values taken from patent US7981903B2, “2-[2-{phenylamino}-1H-pyrrolo[2,3-D]pyrimidin-4-yl)amino] benzamide derivatives as IGF-1R inhibitors for the treatment of cancer” (GlaxoSmithKline LLC, priority 2007, dated 2011).
